Source: the supplement of paper PMC10307832

Experiments:
Experiment in all cases: relative viability (nuclei count vs DMSO), 5 days (fraction); higher = more cells survive
Crizotinib + Tozasertib = compound: C[C@@H](Oc1cc(-c2cnn(C3CCNCC3)c2)cnc1N)c1c(Cl)ccc(F)c1Cl [Crizotinib] + Cc1cc(Nc2cc(N3CCN(C)CC3)nc(Sc3ccc(NC(=O)C4CC4)cc3)n2)n[nH]1 [Tozasertib] (partner 0.1 µM)
Summary of the method: (§1)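 One day after seeding in 1536-well plates, lung cancer cell lines were dosed by pin tool. Dosing was either single-drug or a fixed anchor-drug dose plus five library-drug doses (not always all listed) in √10 steps. After 5 days, nuclei were stained in one fix-and-stain step and counted on 4× images, and relative viability is the nuclei count of treated wells over that of vehicle wells, given as the median of duplicate plates.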

Olaparib + Navitoclax = compound: O=C(c1cc(Cc2n[nH]c(=O)c3ccccc23)ccc1F)N1CCN(C(=O)C2CC2)CC1 [Olaparib] + CC1(C)CCC(c2ccc(Cl)cc2)=C(CN2CCN(c3ccc(C(=O)NS(=O)(=O)c4ccc(N[C@H](CCN5CCOCC5)CSc5ccccc5)c(S(=O)(=O)C(F)(F)F)c4)cc3)CC2)C1 [Navitoclax] (partner 0.5 µM)
Summary of the method: as §1

Crizotinib + Olaparib = compound: C[C@@H](Oc1cc(-c2cnn(C3CCNCC3)c2)cnc1N)c1c(Cl)ccc(F)c1Cl [Crizotinib] + O=C(c1cc(Cc2n[nH]c(=O)c3ccccc23)ccc1F)N1CCN(C(=O)C2CC2)CC1 [Olaparib] (partner 8 µM)
Summary of the method: as §1

Crizotinib + Palbociclib = compound: C[C@@H](Oc1cc(-c2cnn(C3CCNCC3)c2)cnc1N)c1c(Cl)ccc(F)c1Cl [Crizotinib] + CC(=O)c1c(C)c2cnc(Nc3ccc(N4CCNCC4)cn3)nc2n(C2CCCC2)c1=O [Palbociclib] (partner 0.5 µM)
Summary of the method: as §1

Cell Line	relative viability (Crizotinib + Tozasertib; first compound 0.01 µM)	relative viability (Crizotinib + Tozasertib; first compound 0.03162 µM)	relative viability (Crizotinib + Tozasertib; first compound 0.1 µM)	relative viability (Crizotinib + Tozasertib; first compound 0.3162 µM)	relative viability (Crizotinib + Tozasertib; first compound 1 µM)	relative viability (Olaparib + Navitoclax; first compound 0.08 µM)	relative viability (Olaparib + Navitoclax; first compound 0.253 µM)	relative viability (Olaparib + Navitoclax; first compound 2.53 µM)	relative viability (Olaparib + Navitoclax; first compound 8 µM)	relative viability (Crizotinib + Olaparib; first compound 0.01 µM)	relative viability (Crizotinib + Olaparib; first compound 0.03162 µM)	relative viability (Crizotinib + Olaparib; first compound 0.1 µM)	relative viability (Crizotinib + Olaparib; first compound 0.3162 µM)	relative viability (Crizotinib + Olaparib; first compound 1 µM)	relative viability (Crizotinib + Palbociclib; first compound 0.01 µM)	relative viability (Crizotinib + Palbociclib; first compound 0.03162 µM)	relative viability (Crizotinib + Palbociclib; first compound 0.1 µM)	relative viability (Crizotinib + Palbociclib; first compound 0.3162 µM)	relative viability (Crizotinib + Palbociclib; first compound 1 µM)
NCI-H1355	0.568	0.545	0.555	0.515	0.598	0.959	0.887	0.949	0.881	0.714	0.715	0.797	0.622	0.728	0.415	0.378	0.387	0.406	0.406
NCI-H1395	0.67	0.734	0.764	0.738	0.74	1.27	0.937	0.776	0.573	0.458	0.452	0.5	0.487	0.428	0.608	0.593	0.625	0.596	0.643
NCI-H1437	0.379	0.409	0.406	0.384	0.374	1.12	1.01	0.952	0.761	0.625	0.608	0.627	0.651	0.66	0.283	0.328	0.302	0.309	0.356
NCI-H1650	0.407	0.35	0.433	0.356	0.415	1.7	1.1	1.24	1.11	0.619	0.801	0.71	0.779	0.722	0.26	0.359	0.379	0.391	0.319
NCI-H1651	0.697	0.7	0.701	0.723	0.621	0.97	0.814	0.654	0.257	0.183	0.2	0.185	0.173	0.194	0.507	0.544	0.505	0.534	0.529
NCI-H1666	0.547	0.586	0.665	0.648	0.539	1.17	0.828	0.796	0.853	0.711	0.788	0.819	0.695	0.771	0.678	0.685	0.712	0.625	0.623
NCI-H1734	0.247	0.27	0.253	–	0.257	0.854	0.709	0.765	0.531	0.63	0.574	0.624	–	0.608	0.346	0.327	0.327	–	0.341
NCI-H1755	0.614	0.563	0.617	0.467	0.549	1.02	0.912	1.01	0.876	0.779	0.867	0.854	0.923	0.827	0.465	0.445	0.445	0.457	0.451
